One assay has as its system ZR-75-1 cells. In words: Caspase cascade activation (N-(Ac-DEVD)-N'-ethoxycarbonyl-R110 fluorogenic substrate) in ZR-75-1 cells. It is filed as cell-based, Human. The conditions noted are these: ZR-75-1, 24 h incubation; for EC50: Homo sapiens, read-out: Caspase potency EC50; for Caspase activity Ratio (net RFU of test compound to that of control): 0.016 to 10 μM final. The method, then:
(§1) Human breast cancer cell lines T-47D and ZR-75-1 were grown according to media component mixtures designated by American Type Culture Collection+10% FCS (Invitrogen Corporation, Life Technologies Division), in a 5% CO2-95% humidity incubator at 37° C. T-47D and ZR-75-1 cells were maintained at a cell density between 50 and 80% confluency at a cell density of 0.1 to 0.6×10^6 cells/ml. Cells were harvested at 600×g and resuspended at 0.65×10^6 cells/ml into appropriate media+10% FCS. An aliquot of […] of cells was added to a well of a 96-well microtiter plate containing 2.5 μl of a 10% DMSO in RPMI-1640 media solution containing 0.16 to 100 μM of 1-[2,5-bis(2,2,2-trifluoroethoxy)phenyl]-3-[4-(trifluoromethyl)phenyl]-2-propen-1-one or other test compound (0.016 to 10 μM final). An aliquot of 22.5 μl of cells was added to a well of a 384-well microtiter plate containing 2.5 μl of a 10% DMSO in RPMI-1640 media solution without test compound as the control sample. The samples were mixed by agitation and then incubated at 37° C. for 24 h in a 5% CO2-95% humidity incubator. After incubation, the samples were removed from the incubator and 25 μl of a solution containing 14 μM of N-(Ac-DEVD)-N′-ethoxycarbonyl-R110 (SEQ. ID NO:1) fluorogenic substrate (Cytovia, Inc.; WO99/18856), 20% sucrose (Sigma), 20 mM DTT (Sigma), 200 mM NaCl (Sigma), 40 mM Na PIPES buffer pH 7.2 (Sigma), and 500 μg/ml lysolecithin (Calbiochem) was added. The samples were mixed by agitation and incubated at room temperature. Using a fluorescent plate reader (Model SpectraMax Gemini, Molecular Devices), an initial reading (T=0) was made approximately 1-2 min after addition of the substrate solution, employing excitation at 485 nm and emission at 530 nm, to determine the background fluorescence of the control sample. After the 3 h incubation, the samples were read for fluorescence as above (T=3 h).
(§2) The Relative Fluorescence Unit values (RFU) were used to calculate the sample readings as follows: RFU(T=3h)−Control RFU(T=0)=Net RFU(T=3h)
(§3) The activity of caspase cascade activation was determined by the ratio of the net RFU value for 1-[2,5-bis(2,2,2-trifluoroethoxy)phenyl]-3-[4-(trifluoromethyl)phenyl]-2-propen-1-one or other test compound to that of control samples. The EC50 (nM) was determined by a sigmoidal dose-response response calculation (Prism 2.0, GraphPad Software Inc.).

Assay [1] relates to T-47D cells. The assay is described as follows: Caspase cascade activation (N-(Ac-DEVD)-N'-ethoxycarbonyl-R110 fluorogenic substrate) in T-47D cells. The note with it: 24 h incubation; for Caspase activity Ratio (net RFU of test compound to that of control): 0.016 to 10 μM final; for EC50: Homo sapiens, T47D, read-out: Caspase potency EC50. It is filed as cell-based, Human. The method, then:
as §1, §2, §3

For the next assay, the system named is K562. In words: Inhibition of cell proliferation (GI50), K562. It is filed as cell-based. The conditions noted are these: Homo sapiens, K562, 48 h. Here is the method: (§4) All the cell lines were grown according to the conditions recommended by American Type Culture Collection. An aliquot of 90 μl of cells (2.2×10^4 cells/ml) was added to a well of a 96-well microtiter plate containing 10 μl of a 10% DMSO in RPMI-1640 media solution containing 1 nM to 100 μM of 1-[2,5-bis(2,2,2-trifluoroethoxy)phenyl]-3-[4-(trifluoromethyl)phenyl]-2-propen-1-one (0.1 nM to 10 μM final). An aliquot of 90 μl of cells was added to a well of a 96-well microtiter plate containing 10 μl of a 10% DMSO in RPMI-1640 media solution without compound as the control sample for maximal cell proliferation (AMax). The samples were mixed by agitation and then incubated at 37° C. for 48 h in a 5% CO2-95% humidity incubator. After incubation, the samples were removed from the incubator and 20 μl of CellTiter 96 AQUEOUS One Solution Cell Proliferation™ reagent (Promega) was added. […] Using an absorbance plate reader (Model 1420 Wallac Instruments), an initial reading (T=0) was made approximately 1-2 min after addition of the solution, employing absorbance at 490 nm. This determines the possible background absorbance of the test compounds. No absorbance for 1-[2,5-bis(2,2,2-trifluoroethoxy)phenyl]-3-[4-(trifluoromethyl)phenyl]-2-propen-1-one was found at 490 nm. After the 2-4 h incubation, the samples were read for absorbance as above (ATest). […]

The next assay has as its system T-47D. In words: Inhibition of cell proliferation (GI50), T-47D. The conditions noted are these: Homo sapiens, T47D, 48 h. Type of assay: cell-based. The method, then:
as §4

The subject of the next assay is MCF-7. The assay is described as follows: Inhibition of cell proliferation (GI50), MCF-7. Type of assay: cell-based. The note with it: Homo sapiens, MCF7; MCF-7, 48 h. Here is the method:
as §4

Assay [2] relates to T-47D cells. In words: Cell cycle arrest and apoptosis in T-47D cells (propidium iodide flow cytometry). It is filed as cell-based, Human. The note with it: 10 μM. The method, then:
T-47D, a breast cancer cell line, was maintained and harvested as described in Example 23. […] As a control, cells were also incubated with equivalent amount of solvent (DMSO). Cells were harvested at 1,200 rpm and then transferred to 12×75 mm polystyrene tubes. Cells were then resuspended in 500 μl of 1% Na Citrate, 0.1% Triton X-100, and 50 μg/ml of propidium iodide and incubated at room temperature for 30 min followed by flow cytometer analysis. All flow cytometry analyses were performed on FACScalibur (Becton Dickinson) using Cell Quest analysis software. The x-axis plotted the amount of fluorescence and the y-axis is plotted the number of cells with the indicated fluorescence. […] An increase from 13% to 33% in the sub-diploid DNA content of cells (FIG. 1) is also seen with compound treatment. The sub-diploid amount of DNA is indicative of apoptotic cells which have undergone DNA degradation or fragmentation.
For orientation: A flow cytometer gives signals particle by particle.

The subject of another assay is PANC-1. In words: Inhibition of cell proliferation (GI50), PANC-1. Type of assay: cell-based. The conditions noted are these: Homo sapiens, PANC-1, 48 h. The method, then: as §4
The subject of a further assay is MDA-MB-435. The assay is described as follows: Inhibition of cell proliferation (GI50), MDA-MB-435. The note with it: Homo sapiens, MDA-MB-435, 48 h. It is filed as cell-based. Here is the method: as §4
The next assay relates to PC-3. In words: Inhibition of cell proliferation (GI50), PC-3. It is filed as cell-based. The conditions noted are these: Homo sapiens, PC-3, 48 h. Here is the method: as §4
In a further assay the test system is HeLa. In words: Inhibition of cell proliferation (GI50), HeLa. It is filed as cell-based. The conditions noted are these: Homo sapiens, 48 h. Here is the method:
as §4

Another assay deals with SK-Br-3. The assay is described as follows: Inhibition of cell proliferation (GI50), SK-Br-3. Type of assay: cell-based. The conditions noted are these: Homo sapiens, SK-BR-3, 48 h. The method, then:
as §4

Another assay deals with DLD-1. In words: Inhibition of cell proliferation (GI50), DLD-1. It is filed as cell-based. The note with it: Homo sapiens, DLD-1, 48 h. The method, then: as §4

In the case of `O=C(C=Cc1ccc([N+](=O)[O-])cc1)c1cc(OCC(F)(F)F)ccc1OCC(F)(F)F` [Example 15, 1-[2,5-Bis(2,2,2-trifluoroethoxy)phenyl]-3-(4-nitrophenyl)-2-propen-1-one], in the assay on ZR-75-1 cells, the half-maximal effective concentration (EC50) (in general, the concentration needed to bring the measured effect to its halfway point) was 6900 nM and the “Caspase activity Ratio (net RFU of test compound to that of control)” value (“Caspase activity Ratio” for short) is reported as 14.9. Besides, in the assay on T-47D cells [1], the “Caspase activity Ratio” value was 20.4 and the EC50 is 6800 nM.
Consider `O=C(C=Cc1ccc(C(F)(F)F)cc1)c1cc(OCC(F)(F)F)ccc1OCC(F)(F)F` [Example 4, 1-[2,5-Bis(2,2,2-trifluoroethoxy)phenyl]-3-[4-(trifluoromethyl)phenyl]-2-propen-1-one], for which the GI50 (usually the concentration at which growth is held to half of that of the control) in the assay with K562 was 2200 nM; in the assay on T-47D, 1500 nM; in the assay on MCF-7, 2400 nM; with PANC-1, 3100 nM; with MDA-MB-435 it was 3200 nM; in the assay on PC-3 it was 3000 nM. Also, the GI50 with HeLa was 2300 nM; in the assay with SK-Br-3, 1800 nM; in the assay on DLD-1, 2500 nM. Moreover, the “sub-diploid DNA content of cells (M1)” value in the assay on T-47D cells [2] (T47D, 24 h, FIG. 1B legend) is “increase of sub-diploid DNA content of cells”. The “G2/M DNA content cells” value with T-47D cells [2] (T-47D, FIG. 1B) was “increase in G2/M DNA content cells”. Besides, the “sub-diploid DNA content of cells” value in the assay with T-47D cells [2] (T-47D, control 13%) turned out to be 33%. Further, the EC50 with ZR-75-1 cells amounted to 6000 nM; with T-47D cells [1], 5000 nM. For the same molecule, the figures for the “Caspase activity Ratio” value in the assay on ZR-75-1 cells and with T-47D cells [1] were 5.5 and 25.2, respectively.
Take `O=C(C=Cc1ccccc1)c1cc(OCC(F)(F)F)ccc1OCC(F)(F)F` [Example 3, 1-[2,5-Bis(2,2,2-trifluoroethoxy)phenyl]-3-phenyl-2-propen-1-one]: in the assay with ZR-75-1 cells, the EC50 turned out to be 5400 nM and the “Caspase activity Ratio” value worked out at 3.3. Also, in the assay with T-47D cells [1], the “Caspase activity Ratio” value is on record as 6.8 and the EC50 was found to be 1600 nM.

Values taken from patent US7256219B2, “Multifluoro-substituted chalcones and analogs as activators of caspases and inducers of apoptosis and the use thereof” (Cytovia, Inc., priority 2001, dated 2007).
